Legend:
Experiment in all cases: cells
U-87 MG = assay type: functional, cell-based, U-87MG ATCC; details: Homo sapiens;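 note: growth inhibition of the cells measured with a viability assay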
Description: SANGER: Inhibition of human U-87-MG cell growth in a cell viability assay.

SNB-75 = assay type: functional, cell-based; details: Homo sapiens;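 note: cell viability assay measuring growth inhibition of human SNB-75 cells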
Description: SANGER: Inhibition of human SNB75 cell growth in a cell viability assay.

Ramos-2G6-4C10 = assay type: functional, cell-based; details: Homo sapiens;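 note: growth inhibition of the cell line, measured by a cell viability read-out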
Description: SANGER: Inhibition of human Ramos-2G6-4C10 cell growth in a cell viability assay.

NOMO-1 = assay type: functional, cell-based; details: Homo sapiens;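 note: growth inhibition of human NOMO-1 cells measured by a cell viability assay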
Description: SANGER: Inhibition of human NOMO-1 cell growth in a cell viability assay.

SK-LMS-1 = assay type: functional, cell-based; details: Homo sapiens;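 note: growth inhibition of human SK-LMS-1 cells, read out with a cell viability assay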
Description: SANGER: Inhibition of human SK-LMS-1 cell growth in a cell viability assay.

SK-N-FI = assay type: functional, cell-based; details: Homo sapiens;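 note: cell viability assay measuring growth inhibition of human SK-N-FI cells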
Description: SANGER: Inhibition of human SK-N-FI cell growth in a cell viability assay.

ES5 = assay type: functional, cell-based; details: Homo sapiens;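 note: growth inhibition of human ES5 cells, read out by a cell viability assay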
Description: SANGER: Inhibition of human ES5 cell growth in a cell viability assay.

EOL1 = assay type: functional, cell-based; details: Homo sapiens;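 note: growth inhibition of EoL-1 cells, read out by a cell viability assay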
Description: SANGER: Inhibition of human EoL-1-cell cell growth in a cell viability assay.

HD-MY-Z = assay type: functional, cell-based; details: Homo sapiens;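 note: growth inhibition of HD-MY-Z cells, read out with a cell viability assay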
Description: SANGER: Inhibition of human HD-MY-Z cell growth in a cell viability assay.

ETK-1 = assay type: functional, cell-based; details: Homo sapiens;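 note: growth inhibition of human ETK-1 cells, read out with a cell viability assay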
Description: SANGER: Inhibition of human ETK-1 cell growth in a cell viability assay.

NCI-H1304 = assay type: functional, cell-based; details: Homo sapiens;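 note: growth inhibition of the cancer cell line, measured in a cell viability assay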
Description: SANGER: Inhibition of human NCI-H1304 cell growth in a cell viability assay.

NCI-H1155 = assay type: functional, cell-based; details: Homo sapiens;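 note: cell growth inhibition measured by a viability assay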
Description: SANGER: Inhibition of human NCI-H1155 cell growth in a cell viability assay.

LOUCY = assay type: functional, cell-based; details: Homo sapiens;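 note: growth inhibition of human LOUCY cells, read out with a cell viability assay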
Description: SANGER: Inhibition of human LOUCY cell growth in a cell viability assay.

CAL-12T = assay type: functional, cell-based, Homo sapiens; details: Homo sapiens, CAL-12T;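 note: growth inhibition of human CAL-12T cells, read out with a cell viability assay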
Description: SANGER: Inhibition of human CAL-12T cell growth in a cell viability assay.

769-P = assay type: functional, cell-based; details: Homo sapiens
Description: SANGER: Inhibition of human 769-P cell growth in a cell viability assay.

OE19 = assay type: functional, cell-based; details: Homo sapiens;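 note: growth inhibition of OE19 cells, measured through a cell viability read-out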
Description: SANGER: Inhibition of human OE19 cell growth in a cell viability assay.

RKO = assay type: functional, cell-based; details: Homo sapiens;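 note: growth inhibition of human RKO cells, read out with a cell viability assay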
Description: SANGER: Inhibition of human RKO cell growth in a cell viability assay.

KG-1 = assay type: functional, cell-based; details: Homo sapiens;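 note: growth inhibition of KG-1 cells, read out by a cell viability assay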
Description: SANGER: Inhibition of human KG-1 cell growth in a cell viability assay.

LB2241-RCC = assay type: functional, cell-based; details: Homo sapiens;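 note: cell viability assay measuring how strongly the cultured human renal carcinoma line is prevented from growing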
Description: SANGER: Inhibition of human LB2241-RCC cell growth in a cell viability assay.

GB-1 = assay type: functional, cell-based; details: Homo sapiens;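 note: growth of GB-1 cells judged by a viability assay, IC50 marks the concentration inhibiting growth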
Description: SANGER: Inhibition of human GB-1 cell growth in a cell viability assay.

KARPAS-45 = assay type: functional, cell-based; details: Homo sapiens;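 note: inhibition of cell line growth, read out through a viability assay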
Description: SANGER: Inhibition of human KARPAS-45 cell growth in a cell viability assay.

HH = assay type: functional, cell-based; details: Homo sapiens
Description: SANGER: Inhibition of human HH cell growth in a cell viability assay.

QIMR-WIL = assay type: functional, cell-based; details: Homo sapiens;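 note: growth inhibition of QIMR-WIL cells, read out with a cell viability assay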
Description: SANGER: Inhibition of human QIMR-WIL cell growth in a cell viability assay.

UACC-257 = assay type: functional, cell-based; details: Homo sapiens
Description: SANGER: Inhibition of human UACC-257 cell growth in a cell viability assay.

LB2518-MEL = assay type: functional, cell-based; details: Homo sapiens;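 note: growth inhibition of human LB2518-MEL cells, measured with a cell viability assay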
Description: SANGER: Inhibition of human LB2518-MEL cell growth in a cell viability assay.

RS4-11 = assay type: functional, cell-based; details: Homo sapiens;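 note: growth inhibition of RS4-11 cells, read out by a cell viability assay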
Description: SANGER: Inhibition of human RS4-11 cell growth in a cell viability assay.

DOHH-2 = assay type: functional, cell-based; details: Homo sapiens;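 note: growth inhibition of human DOHH-2 cells, read out with a cell viability assay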
Description: SANGER: Inhibition of human DOHH-2 cell growth in a cell viability assay.

TE-6 = assay type: functional, cell-based; details: Homo sapiens;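 note: growth inhibition of TE-6 cells, read out with a cell viability assay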
Description: SANGER: Inhibition of human TE-6 cell growth in a cell viability assay.

NCI-H2228 = assay type: functional, cell-based; details: Homo sapiens;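 note: growth inhibition of human NCI-H2228 cells, read out by a cell viability assay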
Description: SANGER: Inhibition of human NCI-H2228 cell growth in a cell viability assay.

REH = assay type: functional, cell-based; details: Homo sapiens;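 note: growth inhibition of REH cells determined with a cell viability read-out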
Description: SANGER: Inhibition of human REH cell growth in a cell viability assay.

HCE-4 = assay type: functional, cell-based; details: Homo sapiens;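 note: cell viability assay measuring inhibition of growth in the human HCE-4 cell line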
Description: SANGER: Inhibition of human HCE-4 cell growth in a cell viability assay.

NCI-H1395 = assay type: functional, cell-based; details: Homo sapiens;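 note: cell viability assay read-out quantifying reduced proliferation of human NCI-H1395 cells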
Description: SANGER: Inhibition of human NCI-H1395 cell growth in a cell viability assay.

SH-4 = assay type: functional, cell-based; details: Homo sapiens;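 note: growth inhibition of SH-4 cells, read out with a cell viability assay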
Description: SANGER: Inhibition of human SH-4 cell growth in a cell viability assay.

TE-9 = assay type: functional, cell-based; details: Homo sapiens;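 note: cell growth inhibition, measured with a cell viability readout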
Description: SANGER: Inhibition of human TE-9 cell growth in a cell viability assay.

SNU-5 = assay type: functional, cell-based; details: Homo sapiens;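 note: cell viability readout used to measure growth inhibition in human NCI-SNU-5 cells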
Description: SANGER: Inhibition of human NCI-SNU-5 cell growth in a cell viability assay.

P30-OHK = assay type: functional, cell-based; details: Homo sapiens;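 note: growth inhibition of the P30-OHK cell line, read out with a cell viability assay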
Description: SANGER: Inhibition of human P30-OHK cell growth in a cell viability assay.

GAK = assay type: functional, cell-based; details: Homo sapiens;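 note: cell growth inhibition read out by a cell viability assay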
Description: SANGER: Inhibition of human GAK cell growth in a cell viability assay.

KMOE-2 = assay type: functional, cell-based; details: Homo sapiens;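 note: growth inhibition of human KMOE-2 cells, read out with a cell viability assay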
Description: SANGER: Inhibition of human KMOE-2 cell growth in a cell viability assay.

SW 954 = assay type: functional, cell-based; details: Homo sapiens;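 note: growth inhibition of SW954 human cancer cells, read out as cell viability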
Description: SANGER: Inhibition of human SW954 cell growth in a cell viability assay.

SCC-15 = assay type: functional, cell-based; details: Homo sapiens;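 note: growth inhibition of SCC-15 cells, read out with a cell viability assay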
Description: SANGER: Inhibition of human SCC-15 cell growth in a cell viability assay.

KNS-81-FD = assay type: functional, cell-based; details: Homo sapiens;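 note: growth inhibition of KNS-81-FD cells, read out with a cell viability assay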
Description: SANGER: Inhibition of human KNS-81-FD cell growth in a cell viability assay.

EW-13 = assay type: functional, cell-based; details: Homo sapiens;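 note: growth inhibition of EW-13 cells, read out with a cell viability assay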
Description: SANGER: Inhibition of human EW-13 cell growth in a cell viability assay.

LS-123 = assay type: functional, cell-based; details: Homo sapiens
Description: SANGER: Inhibition of human LS-123 cell growth in a cell viability assay.

OS-RC-2 = assay type: functional, cell-based; details: Homo sapiens;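 note: growth inhibition of human OS-RC-2 cells, measured by a cell viability assay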
Description: SANGER: Inhibition of human OS-RC-2 cell growth in a cell viability assay.

DB = assay type: functional, cell-based; details: Homo sapiens
Description: SANGER: Inhibition of human DB cell growth in a cell viability assay.

NY = assay type: functional, cell-based; details: Homo sapiens
Description: SANGER: Inhibition of human NY cell growth in a cell viability assay.

GR-ST = assay type: functional, cell-based; details: Homo sapiens
Description: SANGER: Inhibition of human GR-ST cell growth in a cell viability assay.

MOLT-4 = assay type: functional, cell-based; details: Homo sapiens;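 note: growth inhibition of MOLT-4 cells, determined with a cell viability readout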
Description: SANGER: Inhibition of human MOLT-4 cell growth in a cell viability assay.

SF-539 = assay type: functional, cell-based; details: Homo sapiens;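 note: Read-out is a cell viability assay, with IC50 reflecting inhibition of cell growth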
Description: SANGER: Inhibition of human SF539 cell growth in a cell viability assay.

CAS-1 = assay type: functional, cell-based; details: Homo sapiens;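 note: growth inhibition of CAS-1 cells, measured with a cell viability assay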
Description: SANGER: Inhibition of human CAS-1 cell growth in a cell viability assay.

KM12 = assay type: functional, cell-based; details: Homo sapiens;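 note: KM12 cell growth inhibition, read out with a cell viability assay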
Description: SANGER: Inhibition of human KM12 cell growth in a cell viability assay.

KU812 cell line = assay type: functional, cell-based; details: Homo sapiens;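 note: growth inhibition of KU812 cells, read out with a cell viability assay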
Description: SANGER: Inhibition of human KU812 cell growth in a cell viability assay.

C-33-A = assay type: functional, cell-based; details: Homo sapiens;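 note: cell viability assay measuring growth inhibition of C-33-A cells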
Description: SANGER: Inhibition of human C-33-A cell growth in a cell viability assay.

HT-144 = assay type: functional, cell-based; details: Homo sapiens
Description: SANGER: Inhibition of human HT-144 cell growth in a cell viability assay.

IST-SL1 = assay type: functional, cell-based; details: Homo sapiens;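 note: growth inhibition of human IST-SL1 cells, read out with a cell viability assay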
Description: SANGER: Inhibition of human IST-SL1 cell growth in a cell viability assay.

OCI-AML2 = assay type: functional, cell-based; details: Homo sapiens;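 note: growth inhibition of OCI-AML2 cells, read out with a cell viability assay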
Description: SANGER: Inhibition of human OCI-AML2 cell growth in a cell viability assay.

ML-2 = assay type: functional, cell-based; details: Homo sapiens;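 note: growth inhibition of ML-2 cells, measured with a cell viability readout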
Description: SANGER: Inhibition of human ML-2 cell growth in a cell viability assay.

DMS-79 = assay type: functional, cell-based; details: Homo sapiens
Description: SANGER: Inhibition of human DMS-79 cell growth in a cell viability assay.

MZ2-MEL = assay type: functional, cell-based; details: Homo sapiens
Description: SANGER: Inhibition of human MZ2-MEL cell growth in a cell viability assay.

CA46 = assay type: functional, cell-based; details: Homo sapiens
Description: SANGER: Inhibition of human CA46 cell growth in a cell viability assay.

NEC8 = assay type: functional, cell-based; details: Homo sapiens
Description: SANGER: Inhibition of human NEC8 cell growth in a cell viability assay.

CTV-1 = assay type: functional, cell-based; details: Homo sapiens
Description: SANGER: Inhibition of human CTV-1 cell growth in a cell viability assay.

HCE-T = assay type: functional, cell-based; details: Homo sapiens
Description: SANGER: Inhibition of human HCE-T cell growth in a cell viability assay.

Detroit 562 = assay type: functional, cell-based; details: Homo sapiens
Description: SANGER: Inhibition of human Detroit562 cell growth in a cell viability assay.

COLO-792 = assay type: functional, cell-based; details: Homo sapiens
Description: SANGER: Inhibition of human COLO-792 cell growth in a cell viability assay.

MFM-223 = assay type: functional, cell-based; details: Homo sapiens
Description: SANGER: Inhibition of human MFM-223 cell growth in a cell viability assay.

N#C/C(=C1/Nc2ccccc2S1)c1ccnc(NCCc2cccnc2)n1
IC50 (U-87 MG): > 8000 nM | IC50 (SNB-75): 5270 nM | IC50 (Ramos-2G6-4C10): > 8000 nM | IC50 (NOMO-1): > 8000 nM | IC50 (SK-LMS-1): 7380 nM | IC50 (SK-N-FI): > 8000 nM | IC50 (ES5): 6600 nM | IC50 (EOL1): 2490 nM | IC50 (HD-MY-Z): > 8000 nM | IC50 (ETK-1): > 8000 nM | IC50 (NCI-H1304): > 8000 nM | IC50 (NCI-H1155): > 8000 nM | IC50 (LOUCY): > 8000 nM | IC50 (CAL-12T): 1300 nM | IC50 (769-P): > 8000 nM | IC50 (OE19): 2920 nM | IC50 (RKO): 2310 nM | IC50 (KG-1): > 8000 nM | IC50 (LB2241-RCC): > 8000 nM | IC50 (GB-1): > 8000 nM | IC50 (KARPAS-45): 6300 nM | IC50 (HH): > 8000 nM | IC50 (QIMR-WIL): > 8000 nM | IC50 (UACC-257): > 8000 nM | IC50 (LB2518-MEL): > 8000 nM | IC50 (RS4-11): 3930 nM | IC50 (DOHH-2): > 8000 nM | IC50 (TE-6): > 8000 nM | IC50 (NCI-H2228): 4480 nM | IC50 (REH): > 8000 nM | IC50 (HCE-4): > 8000 nM | IC50 (NCI-H1395): > 8000 nM | IC50 (SH-4): > 8000 nM | IC50 (TE-9): 6490 nM | IC50 (SNU-5): > 8000 nM | IC50 (P30-OHK): 4750 nM | IC50 (GAK): 6740 nM | IC50 (KMOE-2): > 8000 nM | IC50 (SW 954): > 8000 nM | IC50 (SCC-15): > 8000 nM | IC50 (KNS-81-FD): > 8000 nM | IC50 (EW-13): > 8000 nM | IC50 (LS-123): > 8000 nM | IC50 (OS-RC-2): > 8000 nM | IC50 (DB): > 8000 nM | IC50 (NY): 2760 nM | IC50 (GR-ST): > 8000 nM | IC50 (MOLT-4): > 8000 nM | IC50 (SF-539): > 8000 nM | IC50 (CAS-1): > 8000 nM | IC50 (KM12): > 8000 nM | IC50 (KU812 cell line): 6650 nM | IC50 (C-33-A): 2670 nM | IC50 (HT-144): > 8000 nM | IC50 (IST-SL1): > 8000 nM | IC50 (OCI-AML2): 4650 nM | IC50 (ML-2): > 8000 nM | IC50 (DMS-79): > 8000 nM | IC50 (MZ2-MEL): > 8000 nM | IC50 (CA46): 5450 nM | IC50 (NEC8): > 8000 nM | IC50 (CTV-1): 2850 nM | IC50 (HCE-T): 7350 nM | IC50 (Detroit 562): 7080 nM | IC50 (COLO-792): > 8000 nM | IC50 (MFM-223): > 8000 nM

O=c1[nH]c2ccccc2n1C1CCN(Cc2ccc(-c3nc4cc5[nH]cnc5cc4nc3-c3ccccc3)cc2)CC1
IC50 (U-87 MG): > 2560 nM | IC50 (SNB-75): > 2560 nM | IC50 (Ramos-2G6-4C10): > 2560 nM | IC50 (NOMO-1): > 2560 nM | IC50 (SK-LMS-1): > 2560 nM | IC50 (SK-N-FI): > 2560 nM | IC50 (ES5): > 2560 nM | IC50 (EOL1): > 2560 nM | IC50 (HD-MY-Z): > 2560 nM | IC50 (ETK-1): > 2560 nM | IC50 (NCI-H1304): > 2560 nM | IC50 (NCI-H1155): > 2560 nM | IC50 (LOUCY): > 2560 nM | IC50 (CAL-12T): > 2560 nM | IC50 (769-P): > 2560 nM | IC50 (OE19): > 2560 nM | IC50 (RKO): > 2560 nM | IC50 (KG-1): > 2560 nM | IC50 (LB2241-RCC): > 2560 nM | IC50 (GB-1): > 2560 nM | IC50 (KARPAS-45): > 2560 nM | IC50 (HH): > 2560 nM | IC50 (QIMR-WIL): > 2560 nM | IC50 (UACC-257): > 2560 nM | IC50 (LB2518-MEL): > 2560 nM | IC50 (RS4-11): > 2560 nM | IC50 (DOHH-2): > 2560 nM | IC50 (TE-6): > 2560 nM | IC50 (NCI-H2228): 2290 nM | IC50 (REH): > 2560 nM | IC50 (HCE-4): > 2560 nM | IC50 (NCI-H1395): > 2560 nM | IC50 (SH-4): > 2560 nM | IC50 (TE-9): > 2560 nM | IC50 (SNU-5): > 2560 nM | IC50 (P30-OHK): > 2560 nM | IC50 (GAK): > 2560 nM | IC50 (KMOE-2): > 2560 nM | IC50 (SW 954): > 2560 nM | IC50 (SCC-15): > 2560 nM | IC50 (KNS-81-FD): > 2560 nM | IC50 (EW-13): > 2560 nM | IC50 (LS-123): > 2560 nM | IC50 (OS-RC-2): > 2560 nM | IC50 (DB): > 2560 nM | IC50 (NY): > 2560 nM | IC50 (GR-ST): > 2560 nM | IC50 (MOLT-4): > 2560 nM | IC50 (SF-539): > 2560 nM | IC50 (CAS-1): > 2560 nM | IC50 (KM12): > 2560 nM | IC50 (KU812 cell line): 1730 nM | IC50 (C-33-A): > 2560 nM | IC50 (HT-144): > 2560 nM | IC50 (IST-SL1): > 2560 nM | IC50 (OCI-AML2): > 2560 nM | IC50 (ML-2): > 2560 nM | IC50 (DMS-79): > 2560 nM | IC50 (MZ2-MEL): > 2560 nM | IC50 (CA46): > 2560 nM | IC50 (NEC8): > 2560 nM | IC50 (CTV-1): > 2560 nM | IC50 (HCE-T): > 2560 nM | IC50 (Detroit 562): > 2560 nM | IC50 (COLO-792): > 2560 nM | IC50 (MFM-223): > 2560 nM

— ChEMBL document CHEMBL1201861, “Genomics of Drug Sensitity in Cancer screening data, Wellcome Trust Sanger Institute”
